# Test results as given in the OligoGym collection.
# Where “and” joins values, the source holds several entries; their conditions need not be identical. Equal values may be shown once. After the bases stand the sugars from the 5' end (letter, count) and the backbone: PS all phosphorothioate, else s phosphorothioate and o phosphodiester by linkage. Methylation of C is not given here. e = 2'-O-(2-methoxyethyl) (MOE); k = constrained ethyl (cEt); d = 2'-deoxy (DNA)
# Molecular target: SOD1
# Conditions: ASO
sequence,measurement,setting,value
"CTTCCCCACACCTTCA (sugars kekeddddddddekek, linkages s1 o3 s8 o1 s2)",target mRNA inhibition,"A431, 0.12 µM",0%
same,target mRNA inhibition,"A431, 0.6 µM",8%
same,target mRNA inhibition,"A431, 3 µM",8%
same,target mRNA inhibition,"A431, 15 µM",18%
same,target mRNA inhibition,"HepG2, 0.222 µM",8%
same,target mRNA inhibition,"HepG2, 0.667 µM",14%
same,target mRNA inhibition,"HepG2, 2 µM",51%
same,target mRNA inhibition,"HepG2, 6 µM",76%
"CTTTGGCCCACCGTGTT (sugars e3 k2 d7 k2 e3, PS)",target mRNA inhibition,"HepG2, 3 µM",41%
"CTTTTAATAGCCTCATA (sugars e2 k2 d8 k2 e3, PS)",target mRNA inhibition,"HepG2, 5 µM",45%
"CTTTTAATAGCCTCATA (sugars e2 k2 d9 k2 e2, PS)",target mRNA inhibition,"HepG2, 5 µM",34%
"GACACATCGGCCACACCATC (sugars e5 d10 e5, PS)",target mRNA inhibition,"HepG2, 5 µM",45% and 30%
"GACCTGCACTGGTACAG (sugars e3 k2 d7 k2 e3, PS)",target mRNA inhibition,"HepG2, 3 µM",7%
"GACTACGACGCAAACCAGCA (sugars e5 d10 e5, PS)",target mRNA inhibition,"HepG2, 4 µM",40%
"GACTACTTTATAGGCCAGAC (sugars e5 d10 e5, PS)",target mRNA inhibition,"HepG2, 4 µM",64% and 74%
same,target mRNA inhibition,"HepG2, 12 µM",80%
"GAGGACTGCAACGGAAACCC (sugars e5 d10 e5, PS)",target mRNA inhibition,"HepG2, 4 µM",24%
"GATTACAGTGTTTAATG (sugars e2 k2 d8 k2 e3, PS)",target mRNA inhibition,"HepG2, 5 µM",54%
"GATTTAAGTCTGGCAAA (sugars e2 k2 d9 k2 e2, PS)",target mRNA inhibition,"HepG2, 5 µM",35%
"GCAATGGTCTCCTGAGAGTG (sugars e5 d10 e5, PS)",target mRNA inhibition,"HepG2, 5 µM",57%
"GCAGGATAACAGATGAG (sugars e3 k2 d7 k2 e3, PS)",target mRNA inhibition,"HepG2, 0.1875 µM",39%
same,target mRNA inhibition,"HepG2, 0.75 µM",60%
same,target mRNA inhibition,"HepG2, 3 µM",58% and 80%
same,target mRNA inhibition,"HepG2, 12 µM",90%
"GCCACGCCGAGGTCCTGGTT (sugars e5 d10 e5, PS)",target mRNA inhibition,"HepG2, 4 µM",38%
"GCCCAAGTCTCCAACATGCC (sugars e5 d10 e5, PS)",target mRNA inhibition,"HepG2, 5 µM",61% and 53%
"GCCTCAGACTACATCCA (sugars e2 k2 d8 k2 e3, PS)",target mRNA inhibition,"HepG2, 4 µM",69%
"GCCTCATAATAAGTGCC (sugars e2 k2 d9 k2 e2, PS)",target mRNA inhibition,"HepG2, 5 µM",33%
"GCCTCGCCCACTCTGGCCCC (sugars e5 d10 e5, PS)",target mRNA inhibition,"HepG2, 4 µM",37%
"GCTAGCAGGATAACAGA (sugars e2 k2 d9 k2 e2, PS)",target mRNA inhibition,"HepG2, 4 µM",43%
"GCTAGCAGGATAACAGA (sugars e3 k2 d7 k2 e3, PS)",target mRNA inhibition,"HepG2, 3 µM",10%
"GCTTCCCCACACCTTCAC (sugars e5 d8 e5, linkages s1 o3 s9 o2 s2)",target mRNA inhibition,"A431, 0.12 µM",0%
same,target mRNA inhibition,"A431, 0.6 µM",1%
same,target mRNA inhibition,"A431, 3 µM",0%
same,target mRNA inhibition,"A431, 15 µM",5%
same,target mRNA inhibition,"HepG2, 0.222 µM",8%
same,target mRNA inhibition,"HepG2, 0.667 µM",29%
same,target mRNA inhibition,"HepG2, 2 µM",46%
same,target mRNA inhibition,"HepG2, 6 µM",76%
"GGAATCCATGCAGGCCT (sugars e3 k2 d7 k2 e3, PS)",target mRNA inhibition,"HepG2, 3 µM",7%
"GGACCTGCACTGGTACA (sugars e3 k2 d7 k2 e3, PS)",target mRNA inhibition,"HepG2, 3 µM",7%
"GGATACATTTCTACAG (sugars kekeddddddddekek, linkages s1 o3 s8 o1 s2)",target mRNA inhibition,"A431, 0.12 µM",0%
same,target mRNA inhibition,"A431, 0.6 µM",0%
same,target mRNA inhibition,"A431, 3 µM",0%
same,target mRNA inhibition,"A431, 15 µM",14%
"GGATACATTTCTACAGC (sugars e2 k2 d9 k2 e2, PS)",target mRNA inhibition,"HepG2, 0.1875 µM",44%
same,target mRNA inhibition,"HepG2, 0.75 µM",67%
same,target mRNA inhibition,"HepG2, 3 µM",89%
same,target mRNA inhibition,"HepG2, 4 µM",84%
same,target mRNA inhibition,"HepG2, 12 µM",94%
"GGATACATTTCTACAGC (sugars e4 k1 d8 k1 e3, linkages s1 o3 s9 o1 s2)",target mRNA inhibition,"A431, 0.062 µM",8%
same,target mRNA inhibition,"A431, 0.185 µM",7%
same,target mRNA inhibition,"A431, 0.556 µM",30%
same,target mRNA inhibition,"A431, 1.667 µM",33%
same,target mRNA inhibition,"A431, 5 µM",66%
same,target mRNA inhibition,"A431, 15 µM",59%
same,target mRNA inhibition,"SH-SY5Y, 0.062 µM",9%
same,target mRNA inhibition,"SH-SY5Y, 0.185 µM",0%
same,target mRNA inhibition,"SH-SY5Y, 0.556 µM",12%
same,target mRNA inhibition,"SH-SY5Y, 1.667 µM",33%
same,target mRNA inhibition,"SH-SY5Y, 5 µM",65%
same,target mRNA inhibition,"SH-SY5Y, 15 µM",76%
"GGATACATTTCTACAGC (sugars e5 d8 k2 e2, linkages s1 o3 s9 o1 s2)",target mRNA inhibition,"A431, 0.062 µM",2%
same,target mRNA inhibition,"A431, 0.185 µM",4%
same,target mRNA inhibition,"A431, 0.556 µM",15%
same,target mRNA inhibition,"A431, 1.667 µM",19%
same,target mRNA inhibition,"A431, 5 µM",37%
same,target mRNA inhibition,"A431, 15 µM",44%
same,target mRNA inhibition,"SH-SY5Y, 0.062 µM",0%
same,target mRNA inhibition,"SH-SY5Y, 0.185 µM",0%
same,target mRNA inhibition,"SH-SY5Y, 0.556 µM",12%
same,target mRNA inhibition,"SH-SY5Y, 1.667 µM",30%
same,target mRNA inhibition,"SH-SY5Y, 5 µM",56%
same,target mRNA inhibition,"SH-SY5Y, 15 µM",68%
"GGATACATTTCTACAGCT (sugars e5 d8 e5, linkages s1 o3 s9 o2 s2)",target mRNA inhibition,"A431, 0.12 µM",0%
same,target mRNA inhibition,"A431, 0.6 µM",25%
same,target mRNA inhibition,"A431, 3 µM",29%
same,target mRNA inhibition,"A431, 15 µM",50%
same,target mRNA inhibition,"HepG2, 0.222 µM",38%
same,target mRNA inhibition,"HepG2, 0.667 µM",62%
same,target mRNA inhibition,"HepG2, 2 µM",82%
same,target mRNA inhibition,"HepG2, 6 µM",94%
